From patent US8093265B2, “Bicycloheteroaryl compounds as P2X7 modulators and uses thereof” (Renovis, Inc., priority 2007, dated 2012)

Columns and labels:
[1] = target: T1, P2X7 receptor (Homo sapiens, UniProt Q99572); assay: IL-1β release assay in differentiated THP-1 cells (Example 9); format: cell-based; details: THP-1 cells differentiated with LPS and IFN-γ; 30 min pretreatment; BzATP 250 uM; IL-1β by ELISA
T1 construct: host or cells: THP-1 cells differentiated with LPS and IFN-γ
T1 sequence (Q99572 1-595): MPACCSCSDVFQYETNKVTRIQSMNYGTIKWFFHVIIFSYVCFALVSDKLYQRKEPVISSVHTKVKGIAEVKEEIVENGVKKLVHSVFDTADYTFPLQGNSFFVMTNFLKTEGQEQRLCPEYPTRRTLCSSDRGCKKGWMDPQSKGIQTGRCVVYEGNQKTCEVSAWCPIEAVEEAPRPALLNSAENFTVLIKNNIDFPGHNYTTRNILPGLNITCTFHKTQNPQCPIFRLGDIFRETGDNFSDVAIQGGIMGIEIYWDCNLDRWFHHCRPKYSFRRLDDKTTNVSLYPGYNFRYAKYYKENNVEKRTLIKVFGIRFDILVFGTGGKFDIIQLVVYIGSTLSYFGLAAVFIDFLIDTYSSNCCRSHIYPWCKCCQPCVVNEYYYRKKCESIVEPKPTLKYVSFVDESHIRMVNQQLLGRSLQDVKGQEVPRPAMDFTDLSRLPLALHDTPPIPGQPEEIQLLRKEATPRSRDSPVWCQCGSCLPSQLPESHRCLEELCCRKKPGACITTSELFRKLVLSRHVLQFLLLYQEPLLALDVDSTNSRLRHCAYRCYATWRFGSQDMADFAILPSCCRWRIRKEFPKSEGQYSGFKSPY
Experimental: THP-1 cells (ATCC Cat #285-IF-100) are plated in 96 well plates at a concentration of 200,000 cells per well and allowed to differentiate in RPMI-1640 media (ATCC Cat #30-2001) containing 10% FBS, 100 IU/mL penicillin, 100 ug/mL streptomycin, 100 ng/mL LPS and 100 ng/mL IFN-γ for 16 hours. Following differentiation, the cells are treated for an additional 2 hours in RPMI-1640 media containing 100 IU/mL penicillin, 100 ug/mL streptomycin and fresh LPS at 100 ng/mL. The cells are then pretreated for 30 minutes with the compound of interest at the appropriate concentration in RPMI media containing 100 IU/mL penicillin, 100 ug/mL streptomycin. Following the pretreatment 2′,3′-O-(4-benzoylbenzoyl)-adenosine 5′-triphosphate (Sigma Aldrich Cat # B6396) is added to a final concentration of 250 uM, and the cells are incubated for an additional 45 minutes. 30 uL of cell supernatant is then collected and IL-1β levels are determined via ELISA (R&D systems Cat. # HSLB50) according to manufacturer's recommendations using a Tecan Safire plate reader. Background adjusted IL-1β levels of drug treated and non-treated cells are used to calculate the percent inhibition.
The following compounds have been or can be prepared according to the synthetic methods described herein for example, methods A-AA1. The compounds set forth in Table 1 were tested for activity in a cellular model as described herein. Specifically, cells were pretreated with differing amounts of the compound under test and released IL-1β determined as in Example 9, above. Measurements were made and IC50 values, presented in Table 1, below, were determined by fitting the data to a four parameter logistic equation using GraphPad Prism software (GraphPad Software, Inc). The equation may be expressed by the following formula: Y=Bottom+(Top−Bottom)/(1+10^((Log EC50−X)*HillSlope)) where X is the logarithm of concentration, Y is the response and Y starts at Bottom and goes to Top with a sigmoid shape.

[2] = Pharmacokinetic evaluation following intravenous and oral administration in rats; format: in vivo, rat; details: male Sprague-Dawley rats; PO 1 to 5 mg/kg vs IV 1 mg/kg; AUCinf(PO)/AUCinf(IV) dose-normalized
Experimental: Pharmacokinetic Evaluation of Compounds Following Intravenous and Oral Administration in Rats.
Male Sprague-Dawley rats are acclimated for at least 24 hours prior to experiment initiation. During the acclimation period, all animals receive food and water ad libitum. However, food but not water is removed from the animals' cages at least 12 hours before initiation of the experiment. During the first 3 hours of experimentation, the animals receive only water ad libitum. At least three animals each are tested for intravenous and oral dosage. For intravenous formulation, compounds are dissolved (0.25 to 1 mg/mL) in a mixture of 3% dimethyl sulfoxide, 40% PEG 400 and the rest percentage of 40% Captisol in water (w/v). The animals are weighed before dosing. The determined body weight is used to calculate the dose volume for each animal. Dose volume (mL/kg)=1 mg/kg/formulation concentration (mg/mL)
In instances where the formulation concentrations are less than 0.5 mg/mL, the dosing volume is about 2 mL/kg.
For oral formulation, compounds of this invention are suspended (0.5 to 0.75 mg/mL) in a mixture of 5% of 10% Tween 80 in water (v/v) and 95% of 0.5% methyl cellulose in water (w/v). PO rats are typically dosed through oral gavage following the same dose volume formula as IV to achieve a dose level of 1 to 5 mg/kg. For IV dosing, blood samples are collected (using a pre-heparinized syringe) via the jugular vein catheter at 2, 5, 15, 30, 60, 120, 180, 300, 480, and 1440 minutes post dosing. For PO dosing blood samples are collected (using a pre-heparinized syringe) via the jugular vein catheter before dosing and at 5, 15, 30, 60, 120, 180, 300, 480, and 1440 minutes post dosing. About 250 uL of blood is obtained at each time point from the animal. Equal volumes of 0.9% normal saline are replaced to prevent dehydration. The whole blood samples are maintained on ice until centrifugation. Blood samples are then centrifuged at 14,000 rpm for 10 minutes at 4° C., and the upper plasma layer is then transferred into a clean vial and stored at −80° C. The resulting plasma samples are then analyzed by liquid chromatography-tandem mass spectrometry. Following the measurement of plasma samples and dosing solutions, plasma concentration-time curve is plotted. Plasma exposure is calculated as the area under the concentration-time curve extrapolated to time infinite (AUCinf). The AUCinf is averaged and the oral bioavailability (% F) for individual animal is calculated as: • AUCinf(PO)/AUCinf(IV), normalized to their respective dose levels.
The % F can be reported as the mean % F of all animals dosed orally with the compound of the invention at the specified level.
For the purpose of Table 3, the oral bioavailability of each compound is expressed as follows: […]

[3] = Half-life in human liver microsomes (HLM); format: in vitro ADME; details: human liver microsomes 0.78 mg/mL, 1 μM compound, NADPH, 37° C.; for half-life at 1 μM: pH 7.4
Experimental: Half-Life in Human Liver Microsomes (HLM)
Test compounds (1 μM) are incubated with 3.3 mM MgCl2 and 0.78 mg/mL HLM (HL101) in 100 mM potassium phosphate buffer (pH 7.4) at 37° C. on the 96-deep well plate. The reaction mixture is split into two groups, a non-P450 and a P450 group. NADPH is only added to the reaction mixture of the P450 group. An aliquot of samples of P450 group is collected at 0, 10, 30, and 60 min time point, where 0 min time point indicated the time when NADPH is added into the reaction mixture of P450 group. […] Collected aliquots are extracted with acetonitrile solution containing an internal standard. […] The compound concentration in supernatant is measured by LC/MS/MS system.
The half-life value is obtained by plotting the natural logarithm of the peak area ratio of compounds/internal standard versus time. The slope of the line of best fit through the points yields the rate of metabolism (k). This is converted to a half-life value using following equations: Half-life=ln 2/k

[4] = Plasma protein binding by equilibrium dialysis, human plasma; format: in vitro ADME; details: pH 7.4, equilibrium dialysis 16 hr at 37° C., % Bound
Experimental: The plasma protein binding of compounds of invention is measured in human and rat plasma, respectively. A stock solution of the tested compound is prepared in 1 mg/mL in DMSO solution. The stock solution is spiked into the blank plasma to get a final compound concentration at 1 μg/mL for testing. Equilibrium dialysis (The equilibrium dialyzer-96TM MWCO 5K Daltons, Harvard Apparatus) method is used for the testing purpose.
The compound spiked plasma (at […]) and phosphate buffer (0.1 M, pH 7.4), 200 μl each, are added into the opposite sides of the membrane in a 96-well equilibrium dialyzer, respectively. The dialyzer plate is covered and incubated overnight (16 hr) at 37° C. in the 8-plate rotor incubator (Big Shot III 8-plate rotor, Harvard Apparatus). Aliquots (100 μL) are taken from the plasma and the buffer compartments, respectively. The matrix effects are eliminated by adding the same volume of blank plasma into the samples from buffer compartments and adding the same volume of phosphate buffer into the samples from plasma compartments. The samples are extracted by using the regular (3:1) protein precipitation extraction procedure (acetonitrile with internal standard). The supernatants are taken for LC/MS/MS analysis. The percentage of plasma-protein binding can be calculated by using the following method: % Free=[Free Drug/Total Drug]*100=[(Peak Area)buffer/(Peak Area)plasma]*100 % Bound=100−% Free.
For the purpose of Table 4, the plasma protein binding of each compound is expressed as follows: […]

| SMILES | IC50 [1] | Oral Bioavailability F (%) [2] | half-life at 1 μM [3] | fraction unbound at 16 hr, 1 μg/mL [4] | Half Life [3] |
| --- | --- | --- | --- | --- | --- |
| Cc1ccc2c(=O)n([C@H](C)CO)ccc2c1NC(=O)Cc1cccc(C(F)(F)F)c1F [Compound 23, 2-(2-Fluoro-3-trifluoromethyl-phenyl)-N-[2-((R)-2-hydroxy-1-methyl-ethyl)-6-methyl-1-oxo-1,2-dihydro-isoquinolin-5-yl]-acetamide] | 11 nM |  | 1.4 h | < 0.1 |  |
| Cc1ccc2c(=O)n([C@H](C)CO)ccc2c1C(=O)NCc1ccc(C(F)(F)F)c(F)c1 [Compound 40, 2-((R)-2-Hydroxy-1-methyl-ethyl)-6-methyl-1-oxo-1,2-dihydro-isoquinoline-5-carboxylic acid 3-fluoro-4-trifluoromethyl-benzylamide] | 3 nM |  | 2.6 h | 0.1 to 0.24 |  |
| Cc1ccc2c(=O)n([C@H](C)C(N)=O)ccc2c1NC(=O)Cc1ccc(C(F)(F)F)c(F)c1 [Compound 51, (R)-2-{5-[2-(3-Fluoro-4-trifluoromethyl-phenyl)-acetylamino]-6-methyl-1-oxo-1H-isoquinolin-2-yl}-propionamide] | 0.4 nM | + (0-25% F) | 1.3 h |  |  |
| C[C@H](CO)n1ccc2c(C(=O)NCC3(O)CCC(C(F)(F)F)CC3)c(Cl)ccc2c1=O (stereo partly drawn) [Compound 56, 6-Chloro-2-((R)-2-hydroxy-1-methyl-ethyl)-1-oxo-1,2-dihydro-isoquinoline-5-carboxylic acid (1-hydroxy-4-trifluoromethyl-cyclohexylmethyl)-amide] | 9 nM |  | 0.7 h | 0.25 to 0.49 |  |
| Cc1ccc2c(=O)n([C@H](C)CO)ccc2c1NC(=O)Cc1ccc(C(F)(F)F)cc1 [Compound 25, N-[2-((R)-2-Hydroxy-1-methyl-ethyl)-6-methyl-1-oxo-1,2-dihydro-isoquinolin-5-yl]-2-(4-trifluoromethyl-phenyl)-acetamide] | 6 nM |  | 4.6 h | 0.1 to 0.24 |  |
| C[C@H](CO)n1ccc2c(NC(=O)Cc3ccc(F)c(C(F)(F)F)c3)c(Cl)ccc2c1=O [Compound 13, N-[6-Chloro-2-((R)-2-hydroxy-1-methyl-ethyl)-1-oxo-1,2-dihydro-isoquinolin-5-yl]-2-(4-fluoro-3-trifluoromethyl-phenyl)-acetamide] | 0.4 nM |  |  | < 0.1 | 1.0 h |
| Cc1ccc2c(=O)n([C@H](C)CO)ccc2c1NC(=O)Cc1ccc(C(F)(F)F)c(F)c1 [Compound 21, N-[6-Methyl-2-((R)-2-hydroxy-1-methyl-ethyl)-1-oxo-1,2-dihydro-isoquinolin-5-yl]-2-(3-fluoro-4-trifluoromethyl-phenyl)-acetamide] | 0.4 nM |  |  | < 0.1 | 1.5 h |
| Cc1ccc2c(=O)n([C@H](C)CO)ccc2c1C(=O)NCc1cccc(C(F)(F)F)c1 [Compound 42, 2-((R)-2-Hydroxy-1-methyl-ethyl)-6-methyl-1-oxo-1,2-dihydro-isoquinoline-5-carboxylic acid 3-trifluoromethyl-benzylamide] | 7 nM |  | 0.8 h | < 0.1 |  |

Other lines, results leading:

| IC50 [1] | Oral Bioavailability F (%) [2] | half-life at 1 μM [3] | fraction unbound at 16 hr, 1 μg/mL [4] | Half Life [3] | SMILES |
| --- | --- | --- | --- | --- | --- |
| 0.1 nM | + (0-25% F) | 0.8 h |  |  | C[C@H](C(N)=O)n1ccc2c(NC(=O)CC34CC5CC(CC(C5)C3)C4)c(Cl)ccc2c1=O [Compound 2] |
| 0.3 nM |  | 0.62 h | 0.25 to 0.49 |  | C[C@H](CO)n1ccc2c(C(=O)NCC3(O)CCC4(CC3)CC4(F)F)c(Cl)ccc2c1=O (stereo partly drawn) [Compound 65] |
| 7 nM |  | 3 h | < 0.1 |  | C[C@H](CO)n1ccc2c(C(=O)NCc3ccc(C(F)(F)F)c(F)c3)c(Cl)ccc2c1=O [Compound 41, 6-Chloro-2-((R)-2-hydroxy-1-methyl-ethyl)-1-oxo-1,2-dihydro-isoquinoline-5-carboxylic acid 3-fluoro-4-trifluoromethyl-benzylamide] |
| 3 nM |  | 0.65 h | 0.25 to 0.49 |  | C[C@H](CO)n1ccc2c(C(=O)NCC3(O)CCC(F)(F)CC3)c(Cl)ccc2c1=O [Compound 68] |
| 9 nM |  |  | < 0.1 | 3.7 h | Cc1ccc2c(=O)n(CCO)ccc2c1NC(=O)Cc1ccc(C(F)(F)F)c(F)c1 [Compound 28, 2-(3-Fluoro-4-trifluoromethyl-phenyl)-N-[2-(2-hydroxy-ethyl)-6-methyl-1-oxo-1,2-dihydro-isoquinolin-5-yl]-acetamide] |
